# Results from patent US20260248747A1, “PHYSICAL PERFORMANCE AID” (aXichem AB, priority 2023, published 2026).
# Several values for one entry are separate records, joined by “and”; a condition that tells them apart may be missing. Equal values may be shown once. Entries after “also recorded” stand apart in the source; their conditions may differ.
# Key:
# [1] = high-dose oral encapsulated capsaicin, 25.8 mg; cited from earlier work
# [2] = 1.2 mg purified capsaicin in gummy format; isokinetic knee extension; cited from earlier work
# trained men = conditions: acute 12 mg capsaicin; squat exercise; cited from earlier work
# resistance trained men [3] = tested on: resistance trained men; parameters: species or system human; conditions: in vivo
# [4] = tested on: healthy men with resistance training experience; parameters: species or system human; conditions: in vivo
# resistance trained men [5] = tested on: resistance trained men; parameters: species or system human; conditions: in vivo
# [6] = tested on: healthy men with resistance training experience; parameters: species or system human; conditions: in vivo; remark: listed apart in the source
# resistance trained men [7] = tested on: resistance trained men; parameters: species or system human; conditions: in vivo, po
# [8] = tested on: healthy men with resistance training experience; parameters: species or system human; conditions: in vivo; remark: listed apart in the source
# resistance trained men [9] = tested on: resistance trained men; parameters: species or system human; conditions: in vivo; remark: listed apart in the source
# resistance trained men [10] = tested on: resistance trained men; parameters: species or system human; conditions: in vivo; remark: listed apart in the source
# [11] = tested on: healthy men with resistance training experience; parameters: species or system human; conditions: in vivo; remark: listed apart in the source
compound,measurement,setting,value
"COc1cc(CNC(=O)CCCC/C=C/C(C)C)ccc1O [capsaicin, 8-methyl-N-vanillyl-trans-6-nonenamide]",tolerability after oral supplementation,[1],intestinal discomfort
same,summed torque or fatigue index,[2],did not reach significant differences
same,number of repetitions until failure,trained men,increased significantly
same,rated perceived exertion overall body (RPE-OB),trained men,reduced
same,total weight lifted,trained men,increased significantly
phenylcapsaicyn,"percentage of change for urea values, post-hoc Wilcoxon comparison",resistance trained men [3],significant higher percentage of change for LID compared to PLA
same,Urea,resistance trained men [3]; po,40.77 ± 14.17 mg/dL and 37.48 ± 18.18 mg/dL and 29.77 ± 10.67 mg/dL and 30.31 ± 10.41 mg/dL
same,60% load MFP best,[4],950.82 ± 170.05 N and 945.34 ± 152.48 N and 907.38 ± 148.53 N and 903.85 ± 155.90 N and 930.60 ± 146.67 N and 936.27 ± 149.32 N
same,60% load MPP best,[4],822.00 ± 166.47 W and 810.71 ± 157.90 W and 688.32 ± 166.67 W and 698.67 ± 180.46 W and 796.70 ± 149.05 W and 798.56 ± 170.19 W
same,60% load MPV best,[4],0.93 ± 0.06 m/s and 0.80 ± 0.08 m/s and 0.81 ± 0.12 m/s and 0.93 ± 0.09 m/s and 0.91 ± 0.08 m/s
same,% VL (percentage of velocity loss during a set),[4],29.78 ± 10.90% and 26.62 ± 9.37% and 30.91 ± 10.24% and 26.65 ± 11.73% and 34.36 ± 12.15%
same,MFP mean,[4],974.60 ± 162.62 N and 962.14 ± 148.59 N and 950.75 ± 161.58 N and 942.66 ± 141.94 N and 941.04 ± 156.67 N and 931.41 ± 141.91 N
same,MPP Best,[4],770.42 ± 151.29 W and 744.70 ± 169.44 W and 694.45 ± 160.43 W and 701.32 ± 147.81 W and 681.99 ± 149.20 W and 683.86 ± 141.59 W
same,MPP mean,[4],626.70 ± 147.11 W and 612.99 ± 145.84 W and 559.89 ± 128.61 W and 583.27 ± 128.14 W and 539.99 ± 126.34 W and 548.46 ± 135.58 W
same,MPV best,[4],0.78 ± 0.05 m/s and 0.79 ± 0.06 m/s and 0.72 ± 0.07 m/s and 0.74 ± 0.07 m/s and 0.71 ± 0.07 m/s and 0.73 ± 0.05 m/s
same,MPV mean,[4],0.66 ± 0.07 m/s and 0.68 ± 0.07 m/s and 0.60 ± 0.07 m/s and 0.64 ± 0.08 m/s and 0.58 ± 0.08 m/s and 0.61 ± 0.08 m/s
same,"MPV of individual repetitions, post-hoc Bonferroni",[4],differences between HD and PLA in repetition 23; also recorded: HD and LD in repetitions 15 and 16
same,Total volume load,[4],"2,014.57 ± 380.94 kg"
same,"60% fastest velocity, post-hoc Bonferroni comparison",resistance trained men [5],significant differences between LD and PLA
same,60% fastest-V,resistance trained men [5],0.97 ± 0.07 m · s^−1 and 0.96 ± 0.07 m · s^−1
same,Fastest-V,resistance trained men [5],0.87 ± 0.03 m · s^−1 and 0.80 ± 0.06 m · s^−1
same,Mean-Vt,resistance trained men [5],0.61 ± 0.07 m · s^−1 and 0.64 ± 0.07 m · s^−1
same,Repetitions performed in the protocol,resistance trained men [5],24 ± 0.00
same,Slowest-Vt,resistance trained men [5],0.45 ± 0.09 m · s^−1 and 0.49 ± 0.09 m · s^−1
same,Weight,resistance trained men [5],87.69 ± 15.87 kg and 87.57 ± 14.69 kg
same,"maximal velocity loss, post-hoc Bonferroni comparison",resistance trained men [5],significant differences between HD and LD
same,"mean velocity, post-hoc Bonferroni comparison",resistance trained men [5],almost was achieved between HD and PLA
same,"CMJ height post values, post-hoc Wilcoxon comparison",[6],significant differences
same,countermovement jump (CMJ) post and post 24 stages,[6],exhibited higher values
same,"percentage of change in CMJ from pre to post values, post-hoc analyses",[6],did not reach any significant difference
same,Lactate (% change),resistance trained men [7],663.97 ± 352.36% and 653.16 ± 307.31%
same,60% load MDF VLA,[8],94.20 ± 12.57% and 92.43 ± 15.57% and 87.66 ± 11.86% and 87.61 ± 11.16% and 89.62 ± 12.28% and 94.85 ± 19.89%
same,60% load MDF VM,[8],93.24 ± 12.84% and 87.62 ± 9.55% and 88.27 ± 13.74% and 87.29 ± 15.23% and 88.62 ± 16.06% and 84.97 ± 10.64%
same,60% load RMS VLA,[8],131.16 ± 36.34% and 144.45 ± 50.27% and 119.38 ± 47.67% and 103.95 ± 49.44% and 149.81 ± 47.00% and 133.16 ± 33.21%
same,"60% load RMS VLA, post-hoc Bonferroni comparison",[8],significant differences between PLA and LID
same,60% load RMS VM,[8],131.17 ± 29.13% and 120.88 ± 31.08% and 117.18 ± 19.75% and 112.41 ± 42.15% and 133.87 ± 43.81% and 138.30 ± 47.06%
same,Isometric MDF VLA,[8],98.12 ± 9.79% and 99.07 ± 13.42% and 97.78 ± 9.79% and 100.39 ± 12.86%
same,Isometric MDF VM,[8],93.75 ± 11.10% and 91.04 ± 14.79% and 97.28 ± 13.72% and 101.88 ± 18.22%
same,Isometric RMS VLA,[8],99.88 ± 41.48% and 99.21 ± 50.39% and 126.91 ± 33.50% and 100.25 ± 25.60%
same,Isometric RMS VM,[8],120.01 ± 58.48% and 118.65 ± 41.54% and 113.38 ± 24.62% and 102.79 ± 32.43%
same,Training MDF VLA,[8],89.90 ± 10.21% and 90.47 ± 12.71% and 88.36 ± 11.03% and 89.99 ± 12.70% and 86.91 ± 9.27% and 89.91 ± 11.39%
same,Training MDF VM,[8],85.63 ± 11.87% and 91.01 ± 15.42% and 84.07 ± 11.93% and 90.42 ± 18.35% and 83.74 ± 9.68% and 90.58 ± 15.25%
same,Training RMS VLA,[8],123.84 ± 34.86% and 121.24 ± 36.40% and 146.42 ± 47.13% and 119.29 ± 38.40% and 135.14 ± 53.99% and 107.20 ± 42.77%
same,Training RMS VM,[8],128.39 ± 50.89% and 111.81 ± 31.90% and 132.39 ± 40.98% and 109.58 ± 36.84% and 138.04 ± 55.37% and 107.44 ± 35.96%
same,"training RMS VM, post-hoc Bonferroni comparison",[8],significant differences were found between HD and LID
same,"PRS, one-way repeated measures ANOVA between conditions",resistance trained men [9],no differences between conditions
same,"RPE-AM (local RPE in quadriceps), Bonferroni post-hoc comparison",resistance trained men [9],significant differences
same,"RPE-OB, Bonferroni post-hoc analyses between conditions",resistance trained men [9],no significant differences
same,"perceived exertion for the active muscle, RPE-AM",resistance trained men [9],reduced perceived exertion for the active muscle
same,"AST post values, post-hoc Wilcoxon comparison",resistance trained men [10],significant higher post levels of AST for PLA compared to HD
same,AST,resistance trained men [10]; po,17.40 ± 11.25 U/L and 16.37 ± 11.29 U/L and 27.06 ± 14.66 U/L and 22.39 ± 10.86 U/L
same,AST (% change),resistance trained men [10]; po,119.62 ± 166.08% and 110.21 ± 167.16%
same,MIF,[11],"1,175.92 ± 370.86 N and 1,182.71 ± 429.84 N and 1,063.035 ± 265.86 N and 1,091.67 ± 331.61 N and 1,084.25 ± 375.82 N and 1,131.50 ± 420.02 N"
same,RFD0-50,[11],"2,765.42 ± 1,725.44 N · s^1 and 2,544.07 ± 1,150.29 N · s^1 and 2,335.85 ± 1,408.53 N · s^1 and 2,375.33 ± 1,172.75 N · s^1 and 2,006.35 ± 773.62 N · s^1 and 2,190.07 ± 1,249.61 N · s^1"
same,RFD0-100,[11],"2,921.42 ± 1,353.33 N · s^1 and 2,585.57 ± 1,998.95 N · s^1 and 2,320.43 ± 1,229.46 N · s^1 and 1,968.46 ± 1,373.43 N · s^1 and 2,129.25 ± 942.03 N · s^1 and 2,377.32 ± 1,196.68 N · s^1"
same,RFD0-150,[11],"2,958.42 ± 1,280.93 N · s^1 and 2,635.67 ± 1,075.21 N · s^1 and 2,388.16 ± 1,184.60 N · s^1 and 2,129.54 ± 1,279.24 N · s^1 and 2,260.47 ± 1,032.89 N · s^1 and 2,450.52 ± 1,275.39 N · s^1"
same,RFD0-200,[11],"2,697.29 ± 1,219.14 N · s^1 and 2,456.98 ± 1,052.11 N · s^1 and 2,178.30 ± 1,101.08 N · s^1 and 1,973.26 ± 1,214.84 N · s^1 and 2,067.32 ± 978.09 N · s^1 and 2,361.75 ± 1,214.58 N · s^1"
same,RFD0-400,[11],"1,764.86 ± 898.55 N · s^1 and 1,784.80 ± 809.39 N · s^1 and 1,489.55 ± 733.99 N · s^1 and 1,521.34 ± 853.94 N · s^1 and 1,610.34 ± 773.99 N · s^1 and 1,664.43 ± 912.04 N · s^1"
same,"isometric mechanical outcomes (MIF, RFD), two-way repeated measures ANOVAs",[11],no significant differences for any outcome
